Assay results taken from patent US20050112260A1, “Monatin tabletop sweetener compositions and methods of making same” (Cargill, Inc., priority 2003, published 2005).
Residues, ends and D or L forms follow the SMILES beside them.

What was measured:
[1] = Sensory evaluation of table-top sweeteners in coffee and iced tea (panel n=6); assay type: in vivo; conditions: 200 ml serving
Experimental: Monatin table-top formulations, including R,R monatin or R,R monatin/erythritol combinations, were assessed relative to other known sweeteners (aspartame and sucralose) in coffee and iced tea. The key sensory parameters assessed included sweetness quality, aftertaste, bitter taste and its aftertaste. Qualitative evaluation has been carried out.
Standard coffee was used in which to evaluate sweetener performance (Table 7).
Sweeteners were added to coffee at the following concentrations: • Aspartame 0.025% (w/v) • Sucralose 0.0082% (w/v) • R,R monatin* 0.0020, 0.0025, 0.0030% (w/v) plus 1 g maltodextrin • R,R monatin/erythritol 0.0020, 0.0025, 0.0030% (w/v) plus 1 g erythritol (ii) Iced Tea
An ice tea formulation was developed to evaluate sweetener performance (Table 8).
Sweeteners were added to tea at the following concentrations:
The evaluation of these coffee and tea drinks was carried out by a small (n=6) panel of experienced sensory evaluators who evaluated the coffee products on one tasting occasion and the tea products on a subsequent occasion.

[2] = Sensory stability of monatin and aspartame at pH 2.5, 3.0, 4.0 at 40° C. (sweetness vs sucrose standards, panel n=8); assay type: physicochemical; conditions: for Rate constant (k; day^−1) of sweetness loss: pseudo-first order assumed
Experimental: The sensory stability of monatin solutions prepared at pH 2.5, 3.0 and 4.0 and stored at 40° C. was monitored for 100 days. Loss of sweetness from these solutions was compared with the losses of sweetness from aspartame solutions prepared and stored under identical conditions.
The sensory stability of monatin (8% SEV, ˜55 ppm, synthetic blend containing approximately 96% of the 2R,4R/2S, 4S enantiometric pair and 4% of the 2R,4S/2S,4R enantiometric pair) in phosphate/citrate buffers having a pH of 2.5, 3.0, and 4.0 was examined after storage at 40° C. The stability of monatin was compared to that of aspartame (400 ppm) in the same buffers. Three sucrose reference solutions were prepared in the same phosphate/citrate buffers as the monatin and aspartame solutions. All prepared solutions were stored in the dark.
• pH2.5 Phosphoric acid (75% solution) 0.127% (w/v) • Tri-sodium citrate monohydrate 0.005% (w/v) • pH3.0 Phosphoric acid (75% solution) 0.092% (w/v) • Tri-sodium citrate monohydrate 0.031% (w/v) • pH4.0 Phosphoric acid (75% solution) 0.071% (w/v) • Tri-sodium citrate monohydrate 0.047% (w/v)
The sweetness of each sweetener relative to sucrose was assessed in duplicate by a small panel (n=8) of trained sensory evaluators experienced in the sweetness estimation procedure. All samples (in the same buffers) were served in duplicate at a temperature of 22° C.±1° C. Monatin (test) solutions, coded with 3 digit random number codes were presented individually to panelists, in random order. Sucrose reference standards, ranging from 4.0-10.0% (w/v) sucrose, increasing in steps of 0.5% (w/v) sucrose were also provided. Panelists were asked to estimate sweetness by comparing the sweetness of the test solution to the sucrose standards. This was carried out by taking 3 sips of the test solution, followed by a sip of water, followed by 3 sips of sucrose standard followed by a sip of water, etc. Panelists were encouraged to estimate the sweetness to one decimal place, e.g., 6.8, 8.5. A five minute rest period was imposed between evaluating the test solutions. Panelists were also asked to rinse well and eat a cracker to reduce any potential carry over effects.
If a pseudo-first order breakdown reaction is assumed, a plot of logn percentage retention versus time (logn% RTN v. t) allows estimation of the half-life (t½) and rate constant (k) of sweetness loss under any given set of conditions. In so doing, the kinetics of monatin and aspartame sweetness loss may be summarized as follows in Table 13.

[3] = Sweetness relative to sucrose, panel of trained sensory evaluators, dose response curve; assay type: in vivo; conditions: slope of dose response curve at 8% sucrose equivalence value (SEV)
Experimental: One assesses sweetness of a sweetener relative to sucrose by using a panel of trained sensory evaluators experienced in the sweetness estimation procedure. All samples (in same buffers) are served in duplicate at a temperature of 22° C.±1° C. Test solutions, coded with 3 digit random number codes, are presented individually to panelists, in random order. Sucrose reference standards, ranging from 4.0-10.0% (w/v) sucrose, increasing in steps of 0.5% (w/v) sucrose are also provided. Panelists are asked to estimate sweetness by comparing the sweetness of the test solution to the sucrose standards. […] Using information obtained from the panelists, the sweetness intensity or potency is calculated by dividing sucrose equivalent value (SEV) (e.g., % sucrose) by the % monatin at a particular point in a dose response curve.
The S,S stereoisomer of monatin is approximately 50-200 times sweeter than sucrose by weight. […] As discussed above, the sweetness of the monatin is calculated using experienced sensory evaluators in a sweetness comparison procedure, where a test sweetener solution is matched for sweetness intensity against one of a series of reference solutions. […] The intensity sweetness is calculated as the slope in a dose response curve, where the % sucrose is divided by the % monatin. […]

[4] = pH 2.5, 40° C., day 1, aspartame 400 ppm
[5] = pH 2.5, 40° C., day 2, aspartame 400 ppm
[6] = pH 2.5, 40° C., day 3, aspartame 400 ppm
[7] = pH 2.5, 40° C., day 4, aspartame 400 ppm
[8] = pH 2.5, 40° C., day 7, aspartame 400 ppm
[9] = pH 2.5, 40° C., day 8, aspartame 400 ppm
[10] = pH 2.5, 40° C., day 9, aspartame 400 ppm
[11] = pH 2.5, 40° C., day 11, aspartame 400 ppm
[12] = pH 2.5, 40° C., day 50, aspartame 400 ppm
[13] = pH 2.5, 40° C., day 100, aspartame 400 ppm
[14] = pH 3.0, 40° C., day 1, aspartame 400 ppm
[15] = pH 3.0, 40° C., day 2, aspartame 400 ppm
[16] = pH 3.0, 40° C., day 3, aspartame 400 ppm
[17] = pH 3.0, 40° C., day 4, aspartame 400 ppm
[18] = pH 3.0, 40° C., day 7, aspartame 400 ppm
[19] = pH 3.0, 40° C., day 8, aspartame 400 ppm
[20] = pH 3.0, 40° C., day 9, aspartame 400 ppm
[21] = pH 3.0, 40° C., day 11, aspartame 400 ppm
[22] = pH 3.0, 40° C., day 50, aspartame 400 ppm
[23] = pH 3.0, 40° C., day 100, aspartame 400 ppm
[24] = pH 4.0, 40° C., day 3, aspartame 400 ppm
[25] = pH 4.0, 40° C., day 8, aspartame 400 ppm
[26] = pH 4.0, 40° C., day 11, aspartame 400 ppm
[27] = pH 4.0, 40° C., day 17, aspartame 400 ppm
[28] = pH 4.0, 40° C., day 24, aspartame 400 ppm
[29] = pH 4.0, 40° C., day 50, aspartame 400 ppm
[30] = pH 4.0, 40° C., day 100, aspartame 400 ppm

COC(=O)[C@H](Cc1ccccc1)NC(=O)[C@@H](N)CC(=O)O [Aspartame, reference compound] (H-Asp-Phe-OMe)
Comments (sensory evaluation) ([1]; Coffee, Aspartame 250 ppm): Balanced sweetness profile. Very low level
SEV Aspartame (% sucrose) ([2]; pH 2.5, 40° C., day 0, aspartame 400 ppm): 7.34 % sucrose
Retention of Aspartame Sweetness (%) [2, 4]: 94.0%
SEV Aspartame (% sucrose) [2, 4]: 6.90 % sucrose
Retention of Aspartame Sweetness (%) [2, 5]: 92.6%
SEV Aspartame (% sucrose) [2, 5]: 6.80 % sucrose
Retention of Aspartame Sweetness (%) [2, 6]: 89.9%
SEV Aspartame (% sucrose) [2, 6]: 6.60 % sucrose
Retention of Aspartame Sweetness (%) [2, 7]: 85.7%
SEV Aspartame (% sucrose) [2, 7]: 6.29 % sucrose
Retention of Aspartame Sweetness (%) [2, 8]: 81.9%
SEV Aspartame (% sucrose) [2, 8]: 6.01 % sucrose
Retention of Aspartame Sweetness (%) [2, 9]: 81.5%
SEV Aspartame (% sucrose) [2, 9]: 5.98 % sucrose
Retention of Aspartame Sweetness (%) [2, 10]: 81.3%
SEV Aspartame (% sucrose) [2, 10]: 5.97 % sucrose
Retention of Aspartame Sweetness (%) [2, 11]: 79.8%
SEV Aspartame (% sucrose) [2, 11]: 5.86 % sucrose
Retention of Aspartame Sweetness (%) [2, 12]: 57.1%
SEV Aspartame (% sucrose) [2, 12]: 4.19 % sucrose
Retention of Aspartame Sweetness (%) [2, 13]: 10.9%
SEV Aspartame (% sucrose) [2, 13]: 0.80 % sucrose
Rate constant (k; day^−1) of sweetness loss ([2]; pH 2.5, 40° C.): 0.013 day⁻¹
Sweetness Retained (%) ([2]; pH 2.5, 100 days storage at 40° C.): 11%
SEV Aspartame (% sucrose) ([2]; pH 3.0, 40° C., day 0, aspartame 400 ppm): 7.15 % sucrose
Retention of Aspartame Sweetness (%) [2, 14]: 96.5%
SEV Aspartame (% sucrose) [2, 14]: 6.90 % sucrose
Retention of Aspartame Sweetness (%) [2, 15]: 96.1%
SEV Aspartame (% sucrose) [2, 15]: 6.87 % sucrose
Retention of Aspartame Sweetness (%) [2, 16]: 92.3%
SEV Aspartame (% sucrose) [2, 16]: 6.60 % sucrose
Retention of Aspartame Sweetness (%) [2, 17]: 89.9%
SEV Aspartame (% sucrose) [2, 17]: 6.43 % sucrose
Retention of Aspartame Sweetness (%) [2, 18]: 86.3%
SEV Aspartame (% sucrose) [2, 18]: 6.17 % sucrose
Retention of Aspartame Sweetness (%) [2, 19]: 82.9%
SEV Aspartame (% sucrose) [2, 19]: 5.93 % sucrose
Retention of Aspartame Sweetness (%) [2, 20]: 83.1%
SEV Aspartame (% sucrose) [2, 20]: 5.94 % sucrose
Retention of Aspartame Sweetness (%) [2, 21]: 81.5%
SEV Aspartame (% sucrose) [2, 21]: 5.83 % sucrose
Retention of Aspartame Sweetness (%) [2, 22]: 65.9%
SEV Aspartame (% sucrose) [2, 22]: 4.71 % sucrose
Retention of Aspartame Sweetness (%) [2, 23]: 30.8%
SEV Aspartame (% sucrose) [2, 23]: 2.20 % sucrose
Rate constant (k; day^−1) of sweetness loss ([2]; pH 3.0, 40° C.): 0.009 day⁻¹
Sweetness Retained (%) ([2]; pH 3.0, 100 days storage at 40° C.): 31%
SEV Aspartame (% sucrose) ([2]; pH 4.0, 40° C., day 0, aspartame 400 ppm): 7.10 % sucrose
Retention of Aspartame Sweetness (%) [2, 24]: 95.1%
SEV Aspartame (% sucrose) [2, 24]: 6.75 % sucrose
Retention of Aspartame Sweetness (%) [2, 25]: 87.8%
SEV Aspartame (% sucrose) [2, 25]: 6.23 % sucrose
Retention of Aspartame Sweetness (%) [2, 26]: 84.8%
SEV Aspartame (% sucrose) [2, 26]: 6.02 % sucrose
Retention of Aspartame Sweetness (%) [2, 27]: 81.0%
SEV Aspartame (% sucrose) [2, 27]: 5.75 % sucrose
Retention of Aspartame Sweetness (%) [2, 28]: 82.4%
SEV Aspartame (% sucrose) [2, 28]: 5.85 % sucrose
Retention of Aspartame Sweetness (%) [2, 29]: 74.5%
SEV Aspartame (% sucrose) [2, 29]: 5.29 % sucrose
Retention of Aspartame Sweetness (%) [2, 30]: 57.7%
SEV Aspartame (% sucrose) [2, 30]: 4.10 % sucrose
Rate constant (k; day^−1) of sweetness loss ([2]; pH 4.0, 40° C.): 0.005 day⁻¹
Sweetness Retained (%) ([2]; pH 4.0, 100 days storage at 40° C.): 58%

N[C@H](C[C@](O)(Cc1c[nH]c2ccccc12)C(=O)O)C(=O)O [R,R monatin]
sweetness compared to sucrose by weight [3]: 2000-2400 times sweeter than sucrose by weight

NC(CC(O)(Cc1c[nH]c2ccccc12)C(=O)O)C(=O)O (centres unmarked) [S,S monatin]
sweetness compared to sucrose by weight [3]: 50-200 times sweeter than sucrose by weight

OC[C@H]1O[C@H](O[C@]2(CCl)O[C@H](CCl)[C@@H](O)[C@@H]2O)[C@H](O)[C@@H](O)[C@H]1Cl [Sucralose]
Comments (sensory evaluation) ([1]; Coffee, Sucralose 82 ppm): Slow sweetness onset allows stronger
Comments (sensory evaluation) ([1]; Iced Tea, Sucralose 170 ppm): Delay in sweetness onset means first
